Consider two compounds from patent publication US20240270692A1, “S(+) FORM OF 4-(2,4-DIFLUOROPHENYL)-2-(1H-INDOL-3-YL)-4-OXO-BUTANOIC ACID” (TOHOKU UNIVERSITY, priority 2021, published 2024).

The structures appear in SMILES notation. Where two headings read alike, the source gives them in different places.

The series is described as follows: In vivo administration test 1: intravenous administration, plasma concentration by LC-MS/MS. Also noted: species or system cynomolgus monkeys. As to conditions: for half-life / AUC / ke: male cynomolgus monkeys, intravenous, single dose 1 mg/kg, plasma. The protocol: Each enantiomer (S(+) form or R(−) form) of MA5 was dissolved in a mixed solution of physiological saline and 0.1 N sodium hydroxide (9:1), and filtered and sterilized by using a 0.22 μm filter to prepare a solution containing 2 mL/kg of each enantiomer of MA5. Next, the solution containing each enantiomer of MA5 was intravenously administered to each of three 4- to 5-year-old male cynomolgus monkeys at a single dose of 1 mg/kg. As a control, a solution containing no enantiomer of MA5 was also administered in the same manner. […] The analysis conditions for LC-MS/MS are as follows.
As an ionization unit, an apparatus in which NANOSPACESI-2 (manufactured by OSAKA SODA CO., LTD.) as a high-performance liquid chromatograph was connected to a triple quadrupole mass spectrometer (TSQ Quantum Ultra, manufactured by Thermo Fisher Scientific Inc.) equipped with an ESI probe was used. The S(+) form of MA5 (S-(+)-MA5) and the R(−) form of MA5 (R-(−)-MA5), which are substances to be analyzed, were subjected to quantitative analysis by the internal standard method using their respective stable isotopes S-(+)-MA5-d6 and R-(−)-MA5-d6. […] AD-3R (150×2.1 mm i.d., 3.0 μm particle size, manufactured by Daicel Corporation) was used as the analytical column, and CAPCELL C8UG120 (10×2.0 mm i.d., 5.0 μm particle size, manufactured by OSAKA SODA CO., LTD.) was used as the guard column. The column oven temperature was 35° C. Formic acid/water (0.1/100 [v/v]) (solution A)/acetonitrile (solution B) was used as the mobile phase, and the flow rate was 200 μL/min. The measurement was carried out under an isocratic condition in which a single composition of solution A/solution B (57/43 [v/v]) was used for elution. Solution A/solution B (57/43 [v/v]) was used until the analysis time reached 9.5 minutes, and solution A/solution B (10/90 [v/v]) was used after the analysis time reached 9.7 minutes. In addition, a system for washing the column with solution A/solution B (10/90 [v/v]) was incorporated while the analysis time elapsed was 9.7 minutes to 11.7 minutes, and the column was equilibrated with solution A/solution B (57/43 [v/v]) while the analysis time elapsed was 11.8 minutes to 15 minutes. The retention time was 6.95 minutes for S-(+)-MA5, 6.80 minutes for S-(+)-MA5-d6, 8.69 minutes for R-(−)-MA5, and 8.56 minutes for R-(−)-MA5-d6.
The MS conditions were detected in negative ion mode, a spray voltage set to 2.5 kV, a vaporizer temperature set to 250° C., and an ion transfer tube temperature set to 250° C. The precursor ion>product ion SRM channel was set to “m/z 328.0>116.2” for MA5 and “m/z 334.0>121.1” for MA5-d6. The collision energy for generating a product ion was set to 12 eV for MA5 and 17 eV for MA5-d6. Waveform analysis and quantitative calculation by the internal standard method were carried out by using Xcalibur (manufactured by Thermo Fisher Scientific Inc.).

Setting [1] is: cynomolgus monkey, read-out: AUC value.

The term half-life denotes the time needed for the level to fall by half in the phase considered. Read a low half-life as fast loss. As usually defined, the AUC is the area under the concentration-time curve, a measure of exposure. As for `O=C(C[C@@H](C(=O)O)c1c[nH]c2ccccc12)c1ccc(F)cc1F` [R(−) form of MA5, 4-(2,4-difluorophenyl)-2-(1H-indol-3-yl)-4-oxo-butanoic acid], the AUC is 12000 ng·h/mL and the ke amounted to 0.63 h⁻¹. This compound also showed a half-life (cynomolgus monkey) of 1.1 h. Also, the AUC under setting [1] stood at 12000 ng·h/mL.
`O=C(C[C@H](C(=O)O)c1c[nH]c2ccccc12)c1ccc(F)cc1F` [S(+) form of MA5, 4-(2,4-difluorophenyl)-2-(1H-indol-3-yl)-4-oxo-butanoic acid] had an AUC of 30000 ng·h/mL and a ke of 0.29 h⁻¹. For the same compound, under “5 minutes to 24 hours after intravenous administration, cynomolgus monkeys”, the “R(−) form of MA5 in plasma after administration of the S(+) form (chiral conversion in vivo)” value is recorded as “not detected”. Under “cynomolgus monkey”, this compound gave a half-life of 2.4 h. Further, the AUC under setting [1] turned out to be 30000 ng·h/mL. Further, for the setting “from AUC values, intravenous 1 mg/kg, cynomolgus monkeys”, the “more likely to be retained in blood than the R(−) form of MA5” value came out at 2.5 times.
